Assay results from BigSolDB 2.1.

CC(=O)N1CCN(c2ccc(OC[C@@H]3CO[C@@](Cn4ccnc4)(c4ccc(Cl)cc4Cl)O3)cc2)CC1 (racemic)
solubility (mole fraction) (in PEG-200, 298.2 K): 0.00611 | solubility (mole fraction) (in PEG-200, 303.2 K): 0.00718 | solubility (mole fraction) (in PEG-200, 308.2 K): 0.00908 | solubility (mole fraction) (in PEG-200, 313.2 K): 0.0118 | solubility (mole fraction) (in PEG-200, 318.2 K): 0.0144 | solubility (mole fraction) (in water, 298.2 K): 4e-07 | solubility (mole fraction) (in water, 303.2 K): 5e-07 | solubility (mole fraction) (in water, 308.2 K): 5e-07 | solubility (mole fraction) (in water, 313.2 K): 7e-07 | solubility (mole fraction) (in water, 318.2 K): 9e-07
